This passage reports IC50 results from ChEMBL document CHEMBL5726571, “5-hydroxytryptamine receptor 7 activity modulators and their method of use” (2017).

Each structure is given as a SMILES string.

Sequence of 5-hydroxytryptamine receptor 7 (P34969 whole entry): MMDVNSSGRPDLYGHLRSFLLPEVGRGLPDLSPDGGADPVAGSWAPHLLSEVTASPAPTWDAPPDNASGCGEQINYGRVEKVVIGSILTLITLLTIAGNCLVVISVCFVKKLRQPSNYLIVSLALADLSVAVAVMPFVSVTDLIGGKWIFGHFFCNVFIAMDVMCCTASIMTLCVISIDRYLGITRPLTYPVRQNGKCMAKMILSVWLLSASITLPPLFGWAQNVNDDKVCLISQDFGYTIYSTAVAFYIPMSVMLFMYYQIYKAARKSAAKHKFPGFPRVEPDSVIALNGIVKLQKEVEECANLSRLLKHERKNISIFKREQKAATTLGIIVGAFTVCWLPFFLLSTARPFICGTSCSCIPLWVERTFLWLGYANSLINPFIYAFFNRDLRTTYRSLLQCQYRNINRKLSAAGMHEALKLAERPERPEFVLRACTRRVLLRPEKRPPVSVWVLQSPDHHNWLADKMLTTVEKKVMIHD

The experiment addresses 5-hydroxytryptamine receptor 7 (Homo sapiens, UniProt P34969). The experiment in a line: Radiolabel Binding Assay: A stock concentration of 5 nM [3H]LSD (lysergic acid diethyl amide) is prepared in 50 mM Tris-HCl, 10 mM MgCl2, 1 mM EDTA, pH 7.4 (Assay Buffer). Aliquots (50 μl) of radioligand are dispensed into the wells of a 96-well plate containing 100 μl of Assay Buffer. Duplicate 50-μl aliquots of the compound of the disclosure test and chlorpromazine positive control reference compound serial dilutions are added.Membrane fractions of cells expressing recombinant 5HT7 receptors (50 μL) are dispensed into each well. The membranes are prepared from stably tranfected cell lines expressing 5HT7 receptors cultured on 10-cm plates by harvesting PBS-rinsed monolayers, resuspending and lysing in chilled, hypotonic 50 mM Tris-HCl, pH 7.4, centrifuging at 20,000×g, decanting the supernatant and storing at −80° C.; the membrane preparations are resuspended in 3 ml of chilled Assay Buffer and homogenized by several passages through a 26 gauge needle before using in the assay.
Turning to `COc1ccccc1N1CCN(CCC2CC3(CCCCC3)C(=O)O2)CC1` (stereo not drawn), the concentration for half-maximal inhibition (IC50) (usually the concentration that gives 50% inhibition) came out at 72 nM.
In the case of `CC(C)c1ccccc1N1CCN(CCC2CC3(CCCC3)C(=O)O2)CC1` (stereo not drawn), the IC50 stood at 24 nM.
For `O=C1OC(CCN2CCN(c3ccccc3)CC2)CC12CCCCC2` (stereo not drawn), the IC50 was determined as 33 nM.
Under `CC(C)(C)c1ccccc1N1CCN(CCC2CC3(CCCC3)C(=O)O2)CC1` (stereo not drawn) stands 1920 nM; under `CCC1(CC)CC(CCN2CCN(c3ccccc3C)CC2)OC1=O` (stereo not drawn), 104 nM.
For the compound `N#Cc1ccc(N2CCN(CCC3CC4(CCCCC4)C(=O)O3)CC2)nc1` (stereo not drawn), the 50% inhibitory concentration (IC50) worked out at 1520 nM.
As for `CCC1(CC)CC(CCN2CCN(c3ccc([N+](=O)[O-])cc3)CC2)OC1=O` (stereo not drawn), the IC50 worked out at 54 nM.
Under `Cc1ccc(N2CCN(CCCC3CC(c4ccccc4)(c4ccccc4)C(=O)O3)CC2)cc1` (stereo not drawn) stands 146 nM; under `CCC1(CC)CC(CCN2CCN(C(c3ccccc3)c3ccccc3)CC2)OC1=O` (stereo not drawn), 83 nM.
Under `O=C1OC(CCN2CCN(c3ccc(C(F)(F)F)cn3)CC2)CC12CCCCC2` (stereo not drawn) stands 254 nM.
Under `CCC1(CC)CC(CCN2CCc3ccccc3C2)OC1=O` (stereo not drawn) stands 13 nM; under `CCC1(CC)CC(CCN2CCN(c3ccc(N)cc3)CC2)OC1=O` (stereo not drawn), 471 nM.
For `O=C1OC(CCN2CCN(c3ccc(C(F)(F)F)cc3)CC2)CC12CCCCC2` (stereo not drawn), the IC50 stood at 183 nM.
Under `COc1cccc(N2CCN(CCC3CC4(CCCCC4)C(=O)O3)CC2)c1` (stereo not drawn) stands 56 nM; under `Cc1ccc(N2CCN(CCC3CC(c4ccccc4)(c4ccccc4)C(=O)O3)CC2)cc1` (stereo not drawn), 145 nM; under `CCC1(CC)CC(CCN2CCN(c3c(C)cccc3C)CC2)OC1=O` (stereo not drawn), 1380 nM.
Under `CCC1(CC)CC(CCN2CCN(c3ccc(C#N)cc3)CC2)OC1=O` (stereo not drawn) stands 134 nM.
On to `CCC1(CC)CC(CCN2CCN(c3ccc(C)cc3C)CC2)OC1=O` (stereo not drawn), for which the concentration for half-maximal inhibition (IC50) is 363 nM.
Under `O=C1OC(CCN2CCN(c3ccccn3)CC2)CC12CCCCC2` (stereo not drawn) stands 44 nM; under `CCC1(CC)CC(CCN2CCN(c3cccc(O)c3)CC2)OC1=O` (stereo not drawn), 324 nM.
As for `CCC1(CC)CC(CCN2CCN(c3ccc(C(O)(c4ccccc4)c4ccccc4)cc3)CC2)OC1=O` (stereo not drawn), the concentration for half-maximal inhibition (IC50) was determined as 3160 nM.
Under `CCC1(CC)CC(CCN2CCN(c3ccc(O)cc3)CC2)OC1=O` (stereo not drawn) stands 89 nM; under `CCC1(CC)CC(CCN2CCN(C3CCCCC3)CC2)OC1=O` (stereo not drawn), 3760 nM.
Under `CCC1(CC)CC(CCN2CCN(c3ccccc3OC)CC2)OC1=O` (stereo not drawn) stands 118 nM; under `CCC1(CC)CC(CCN2CCN(c3ccccc3O)CC2)OC1=O` (stereo not drawn), 156 nM.
Under `CCC1(CC)CC(CCN2CCN(c3ccccc3)CC2)OC1=O` (stereo not drawn) stands 21 nM; under `O=C1OC(CCN2CCN(c3cccnc3)CC2)CC12CCCCC2` (stereo not drawn), 749 nM; under `CCC1(CC)CC(CCN2CCN(c3cccc(OC)c3)CC2)OC1=O` (stereo not drawn), 165 nM.
